The results in this text go back to patent publication US9321809B2, “Macrocyclic compounds for suppressing replication of hepatitis C virus” (Ginkgo Pharma Co., Ltd., priority 2012, dated 2016).

The test concerns HCV replicon-containing huh-7 cells (replicon 1b). As to the kind of experiment: HCV Replicon Assay (luciferase readout). To be noted: Hepatitis C virus; HCV replicon 1b in huh-7 cells, 48 h incubation, 1% DMSO, luciferase signal; read-out: EC50 (EC 50 on replicon 1b). The class given is cell-based. The procedure:
Compounds of formuala (I) are tested for the ability to inhibit viral replication of the Hepatitis C viruses by the following in vitro assays.
DMEM (Life Technologies #41965-039) was supplemented with 10% FBS, 2 mM L-glutamine (Life Technologies #25030-024), penicillin (100 units/ml)/streptomycin (100 micrograms/ml) (Life Technologies #15140-114), 1× non-essential amino acids (Life Technologies #11140-035).
Complete media was prepared by mixing FBS, DMEM media with Geneticin (G418). The compete media was preincubated at 37° C. in a CO2 incubator. Then, HCV replicon-containing huh-7 cells (V. Lohmann et. al. Science, 285, (1999)110-113) was taken out from 37° C. incubator. The residual medium was absorbed, and the cells were washed with PBS. After washing fluid was removed, 1 ml 0.25% trypsin/0.02% EDTA solution. The cells were washed by the above trypsin/EDTA solution to make sure that each cell was cleaned. After the trypsin/EDTA solution was absorbed, the mixture was incubated at 37° C. in a CO2 incubator for 3-5 minutes. Morphological changes were observed by inverted microscope, till the cells were detached from the wall of container completely.
3 ml of complete media was added to make the cells to suspend. The cells are counted with hematometer. Appropriate volumes of the complete media was added to adjust the cell density to 100,000/ml. Cells were plated with 100 μl of suspension at 10,000/well of 96 well plate. Plates were placed into 37° C. 5% CO2 incubator for 24 h.
Preparation of Drug Solution:
Drugs were diluted under aseptic conditions.
Stock solutions may be prepared before the assay, which means that the test compounds are dissolved in 100% DMSO to afford a final concentration of 2 mM. Before the 96 well culture was completed, the stock solution was diluted with culter media to 100 fold of the final concentration (100× solution).
96-well plates were taken out from 37° C. CO2 incubator and morphological changes were observed by inverted microscope. In a ventilator, 1 μl of 100× drug solution was added to wells of 96 well plate until the final concentration of DMSO in the mixture is 1%. The plates were incubated at 37° C. in a CO2 environment for 48 h. 30 μl of Stead-G1® Luciferase Assay System (bought from Promega) was added to each well of 96 well plates and each plate is shaken in a plate shaker for 5 minutes to ensure cells cleavaged completely. The fluorescence signal was quantitated in a Perkin-Elmer plate reader (Envision) and integral time was setted to be 2 second. The following data were achieved after recording and analyzing the data.
In general terms: In antiviral work, replicon cells carry a viral genome segment that copies itself.
In the case of `CCC1C[C@]1(NC(=O)[C@@H]1C[C@@H]2CN1C(=O)[C@H](C1CCCCC1)NC(=O)[C@@H](NC(=O)OC(C)(C)C)COCCCc1cc3c(nccc3cc1OC)O2)C(=O)NS(=O)(=O)C1CC1` (stereo in doubt) [Compound IIb-6, tert-butyl N-[(3R,5S,8S,11S)-8-cyclohexyl-5-{[(1R,2S)-1-[(cyclopropanesulfonyl)carbamoyl]-2-ethylcyclopropyl]carbamoyl}-18-methoxy-7,10-dioxo-2,13-dioxa-6,9,23-triazatetracyclo[15.6.2.1^3,6.0^20,24]hexacosa-1(23),17(25),18,20(24),21-pentaen-11-yl]carbamate], the EC50 lay in the range of 50 to 500 nM.
Take `C=C[C@@H]1C[C@]1(NC(=O)[C@@H]1C[C@@H]2CN1C(=O)[C@H](C(C)(C)C)NC(=O)[C@@H](N)COC/C=C/c1cccc3c1CN(C3)C(=O)O2)C(=O)NS(=O)(=O)C1CC1` [Compound IIa-2, (1R,12E,17S,20S,23S)-17-amino-20-tert-butyl-N-[(1R,2S)-1-[(cyclopropanesulfonyl)carbamoyl]-2-ethenylcyclopropyl]-3,18,21-trioxo-2,15-dioxa-4,19,22-triazatetracyclo[20.2.1.1^4,7.0^6,11]hexacosa-6,8,10,12-tetraene-23-carboxamide]: the EC50 lay within 10 to 50 nM.
In the case of `C=C[C@@H]1C[C@]1(NC(=O)[C@@H]1C[C@@H]2CN1C(=O)[C@H](C(C)(C)C)NC(=O)[C@H](NC(=O)OC(C)(C)C)COC/C=C/c1cccc3c1CN(C3)C(=O)O2)C(=O)NS(=O)(=O)C1CC1` [Compound IIa-3, tert-butyl N-[(1R,12E,17R,20S,23S)-20-tert-butyl-23-{[(1R,2S)-1-[(cyclopropanesulfonyl)carbamoyl]-2-ethenylcyclopropyl]carbamoyl}-3,18,21-trioxo-2,15-dioxa-4,19,22-triazatetracyclo[20.2.1.1^4,7.0^6,11]hexacosa-6,8,10,12-tetraen-17-yl]carbamate] it was 50 to 500 nM.
As to `C=C[C@@H]1C[C@]1(NC(=O)[C@@H]1C[C@@H]2CN1C(=O)[C@H](C(C)(C)C)NC(=O)[C@H](N)COC/C=C/c1cccc3c1CN(C3)C(=O)O2)C(=O)NS(=O)(=O)C1CC1` [Compound IIa-4, (1R,12E,17R,20S,23S)-17-amino-20-tert-butyl-N-[(1R,2S)-1-[(cyclopropanesulfonyl)carbamoyl]-2-ethenylcyclopropyl]-3,18,21-trioxo-2,15-dioxa-4,19,22-triazatetracyclo[20.2.1.1^4,7.0^6,11]hexacosa-6,8,10,12-tetraene-23-carboxamide], the EC50 is 500 to 20000 nM.
Take `C=C[C@@H]1C[C@]1(NC(=O)[C@@H]1C[C@@H]2CN1C(=O)[C@H](C(C)(C)C)NC(=O)[C@@H](NC(=O)c1cnccn1)COC/C=C/c1cccc3c1CN(C3)C(=O)O2)C(=O)NS(=O)(=O)C1CC1` [Compound IIa-5, (1R,12E,17S,20S,23S)-20-tert-butyl-23-N-[(1R,2S)-1-[(cyclopropanesulfonyl)carbamoyl]-2-ethenylcyclopropyl]-3,18,21-trioxo-17-C-pyrazine-2-2,15-dioxa-4,19,22-triazatetracyclo[20.2.1.1^4,7.0^6,11]hexacosa-6,8,10,12-tetraene-17,23-diamido]: the EC50 lay in the range of 50 to 500 nM.
In the case of `C=C[C@@H]1C[C@]1(NC(=O)[C@@H]1C[C@@H]2CN1C(=O)[C@H](C(C)(C)C)NC(=O)[C@H](NC(=O)c1cnccn1)COC/C=C/c1cccc3c1CN(C3)C(=O)O2)C(=O)NS(=O)(=O)C1CC1` [Compound IIa-6, (1R,12E,17R,20S,23S)-20-tert-butyl-23-N-[(1R,2S)-1-[(cyclopropanesulfonyl)carbamoyl]-2-ethenylcyclopropyl]-3,18,21-trioxo-17-C-pyrazine-2-2,15-dioxa-4,19,22-triazatetracyclo[20.2.1.1^4,7.0^6,11]hexacosa-6,8,10,12-tetraene-17,23-diamido] it was 50 to 500 nM.
Take `C=C[C@@H]1C[C@]1(NC(=O)[C@@H]1C[C@@H]2CN1C(=O)[C@H](C(C)(C)C)NC(=O)[C@@H](NC(C)=O)COC/C=C/c1cccc3c1CN(C3)C(=O)O2)C(=O)NS(=O)(=O)C1CC1` [Compound IIa-7, (1R,12E,17S,20S,23S)-20-tert-butyl-N-[(1R,2S)-1-[(cyclopropanesulfonyl)carbamoyl]-2-ethenylcyclopropyl]-17-acetamido-3,18,21-trioxo-2,15-dioxa-4,19,22-triazatetracyclo[20.2.1.1^4,7.0^6,11]hexacosa-6,8,10,12-tetraene-23-carboxamide]: the EC50 fell in the range of 50 to 500 nM.
Turning to `C=C[C@@H]1C[C@]1(NC(=O)[C@@H]1C[C@@H]2CN1C(=O)[C@H](C(C)(C)C)NC(=O)[C@@H](NS(C)(=O)=O)COC/C=C/c1cccc3c1CN(C3)C(=O)O2)C(=O)NS(=O)(=O)C1CC1` [Compound IIa-8, (1R,12E,17S,20S,23S)-20-tert-butyl-N-[(1R,2S)-1-[(cyclopropanesulfonyl)carbamoyl]-2-ethenylcyclopropyl]-17-methanesulfonamido-3,18,21-trioxo-2,15-dioxa-4,19,22-triazatetracyclo[20.2.1.1^4,7.0^6,11]hexacosa-6,8,10,12-tetraene-23-carboxamide], the EC50 lay within 10 to 50 nM.
With `C=C[C@@H]1C[C@]1(NC(=O)[C@@H]1C[C@@H]2CN1C(=O)[C@H](C(C)(C)C)NC(=O)[C@@H](NC(=O)OCC)COC/C=C/c1cccc3c1CN(C3)C(=O)O2)C(=O)NS(=O)(=O)C1CC1` [Compound IIa-9, ethyl N-[(1R,12E,17S,20S,23S)-20-tert-butyl-23-{[(1R,2S)-1-[(cyclopropanesulfonyl)carbamoyl]-2-ethenylcyclopropyl]carbamoyl}-3,18,21-trioxo-2,15-dioxa-4,19,22-triazatetracyclo[20.2.1.1^4,7.0^6,11]hexacosa-6,8,10,12-tetraen-17-yl]carbamate] the figure was 10 to 50 nM.
In the case of `C=C[C@@H]1C[C@]1(NC(=O)[C@@H]1C[C@@H]2CN1C(=O)[C@H](C(C)(C)C)NC(=O)[C@@H](NC(=O)OCc1ccccc1)COC/C=C/c1cccc3c1CN(C3)C(=O)O2)C(=O)NS(=O)(=O)C1CC1` [Compound IIa-10, benzyl N-[(1R,12E,17S,20S,23S)-20-tert-butyl-23-{[(1R,2S)-1-[(cyclopropanesulfonyl)carbamoyl]-2-ethenylcyclopropyl]carbamoyl}-3,18,21-trioxo-2,15-dioxa-4,19,22-triazatetracyclo[20.2.1.1^4,7.0^6,11]hexacosa-6,8,10,12-tetraen-17-yl]carbamate] it was < 10 nM.
In the case of `C=C[C@@H]1C[C@]1(NC(=O)[C@@H]1C[C@@H]2CN1C(=O)[C@H](C(C)(C)C)NC(=O)[C@@H](NC(=O)OC1CCCC1)COC/C=C/c1cccc3c1CN(C3)C(=O)O2)C(=O)NS(=O)(=O)C1CC1` [Compound IIa-11, cyclopentyl N-[(1R,12E,17S,20S,23S)-20-tert-butyl-23-{[(1R,2S)-1-[(cyclopropanesulfonyl)carbamoyl]-2-ethenylcyclopropyl]carbamoyl}-3,18,21-trioxo-2,15-dioxa-4,19,22-triazatetracyclo[20.2.1.1^4,7.0^6,11]hexacosa-6,8,10,12-tetraen-17-yl]carbamate] it was < 10 nM.

Broadly, the EC50 is the midpoint of the concentration-response curve.
